Assay results reported in PubChem BioAssay (NCI).
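Values below derive from 48-hour exposures of cells grown in 96-well plates, with endpoints linearly interpolated between the two concentrations bracketing the appropriate inhibition level. TGI marks complete inhibition of growth.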 Where a SMILES comes first, the peptide text is derived from it. [ ]: non-standard residue; d: D form. The star is where a group is joined. NMeF = CN[CH](Cc1ccccc1)C(=O)O; NMeV = CN[CH](C(=O)O)C(C)C; Boc = CC(C)(C)OC(=O)*; OBn = c1ccc(CO*)cc1

Assays:
Test in all cases: NCI tumour cell line growth inhibition, 48 h
HOP-18 NSCLC = system: HOP-18 NSCLC
SNB-78 CNS = system: SNB-78 CNS
DMS 273 small cell lung = system: DMS 273 small cell lung
DLD-1 colon = system: DLD-1 colon
RXF-631 renal = system: RXF-631 renal
P388 leukemia = system: P388 leukemia
SN12K1 renal = system: SN12K1 renal
P388/ADR leukemia = system: P388/ADR leukemia

| Compound | TGI (HOP-18 NSCLC) | TGI (SNB-78 CNS) | TGI (DMS 273 small cell lung) | TGI (DLD-1 colon) | TGI (RXF-631 renal) | TGI (P388 leukemia) | TGI (SN12K1 renal) | TGI (P388/ADR leukemia) |
| --- | --- | --- | --- | --- | --- | --- | --- | --- |
| O=C(c1ccc(Cl)cc1)N(C(=S)N1CCN(c2ccccn2)CC1)c1ccccc1 | > 100 µM | > 100 µM | > 100 µM | > 100 µM |  |  |  |  |
| C[C@]12CCC(=O)C=C1CC[C@@H]1[C@@H]2C(=O)C[C@@]2(C)[C@H]1CC[C@]2(O)C(=O)CO | > 100 µM |  | > 100 µM | > 100 µM |  |  |  |  |
| CC(=O)c1ccc(NC(=O)/C(=N\NC(N)=O)C(C#N)CC(C)(C)C=O)cc1 (stereo not given) |  | > 100 µM | > 100 µM | > 100 µM |  |  |  |  |
| COc1ccc(C2C(C(=O)O)=C(COC(C)=O)Oc3cc4c(cc32)OCO4)cc1 (stereo not given) | > 100 µM | > 100 µM | > 100 µM | > 100 µM | > 100 µM |  |  |  |
| CC(C)C(NC(=O)OC(C)(C)C)C(=O)N(C)C(Cc1ccccc1)C(=O)N(C)C(C(=O)N(C)C(C(=O)OCc1ccccc1)C(C)C)C(C)C (stereo not given) (Boc-V[NMeF][NMeV][NMeV]-OBn; configuration not given here) |  |  | > 100 µM |  |  |  |  |  |
| CCN(CC)C(=O)c1c(N2CCOCC2)cc(N(CC)CC)oc1=O | > 100 µM | > 100 µM | > 100 µM | > 100 µM |  |  |  |  |
| Cc1ccc(NC(=O)c2cccc([N+](=O)[O-])c2O)c(C)c1 | 6.44 µM | > 100 µM |  | > 100 µM |  |  |  |  |
| Cc1cc(=O)c2c(O)c3c(O)cc(O)c4c5c(O)cc(O)c6c(O)c7c(=O)cc(C)c8c1c2c(c34)c(c65)c78 | > 100 µM | > 77.3 µM | > 100 µM | 47.5 µM |  | 72.8 µM | > 100 µM | > 100 µM |
